The subject of one test is diabetic rats. The conditions noted are these: intravenously at 5 and 10 mg/kg; cited from earlier work.
Test [1] relates to male ob/ob mice. Briefly: Body weight in male ob/ob mice. It counts as in vivo. The source says:
(§1) The effects of oral 7-day administration of a Cimicifuga racemosa extract prepared according to example 1 and designated Ze 450 on body weight, daily food and water intake as well as glucose control were investigated in male ob/ob mice as follows. The ob/ob mouse is a well-characterized and representative in-vivo model of obesity and diabetes in mammals, in particular humans, wherein both disorders are the result of a mutation in the ob gene which encodes leptin. In the study metformin was the positive control.
(§2) Body weight, food and water intake were measured daily from 6 days before dosing to 6 days after dosing started. Animals were fasted overnight on Day 6 for an oral glucose tolerance test (OGTT) on Day 7. The animals also had freely fed bleeds on Day −4 and Day 6. […]
(§3) All treatments were dosed orally by gavage […] once daily. During the treatment period food intake, water intake and body weight were recorded daily at the dosing session. After dosing the animals were examined and any overt behavior was recorded. […]
(§4) Body weights, food intake and water intake were expressed as mean values ±SEM. Body weight, body weight gain, daily and average food and water intake data and cumulative food intake were analyzed by ANCOVA with baseline as a covariate, followed by appropriate comparisons (two-tailed) to determine significant differences from the appropriate control group. […]

Test [2] deals with male ob/ob mice. In words: Daily water intake in male ob/ob mice. It counts as in vivo. The conditions noted are these: metformin PO; p=0.002.
Description: as §1, §2, §3, §4

With `COc1ccc(/C=C/C(=O)O)cc1O` [isoferulic acid], the plasma glucose levels result in the test on diabetic rats is recorded as “will lower plasma glucose levels”.
For `CN(C)C(=N)N=C(N)N` [metformin], the “effect on overall body weight” value in the test on male ob/ob mice [1] (metformin 200 mg/kg PO, after 6 days of treatment) is “no significant effect”. In addition, the “cumulative body weight over the 6 treatment days” value in the test with male ob/ob mice [1] (metformin PO, compared to its control group) is recorded as “virtually no reduction”. Also, in the test with male ob/ob mice [2], the “average weekly water intake” value is “significant (p=0.002) reduction”.
